Measurements as given in patent publication US20240294543A1, “CYCLOHEPTA-THIENO-DIAZEPINE DERIVATIVES AS GABA A GAMMA1 PAM” (Hoffmann-La Roche Inc., priority 2021, published 2024).
Like-named read-outs stand apart in the source and are kept apart here.

Columns and labels:
h-GABA-A α2β2γ1 = h-GABA-A α2β2γ1 (Homo sapiens (Human), UniProt P47869+Q8N1C3); test: Two-electrode voltage clamp electrophysiology in Xenopus oocytes expressing GABAA receptors; type: cell-based; conditions: for Efficacy (GABA) %: % modulation of GABA EC20 = 100*(Fold increase−1), compound at about 30-fold its Ki α2β2γ1; for Fold increase h-GABA-A α2β2γ1 oocyte @ 30-fold Ki: Xenopus oocytes, GABA EC20, compound at about 30-fold its Ki α2β2γ1
Procedure, shortened: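 Xenopus oocytes injected with receptor subunit RNA and recorded 3–5 days later by two-electrode voltage clamp at −80 mV, room temperature, pH 7.4. GABA applied at EC20 for 1.5 min, with and without test compound. Efficacy = extremum of the point-by-point ratio of the two responses, expressed as % modulation of GABA EC20; ≥3 oocytes per concentration.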

[1] = biological target: human GABAA α2β2γ1 receptor (Homo sapiens (Human), UniProt P47869+Q8N1C3); test: Radioligand binding assay, competition for [3H]RO7239181, γ1-containing GABAA subtypes
[2] = biological target: human GABAA α1β3γ2 receptor (Homo sapiens (Human), UniProt P14867+P18507); test: Radioligand binding assay, competition for [3H]Flumazenil, γ2-containing GABAA subtypes; conditions: for γ2/γ1 Selectivity Ratio: Ki α1β3γ2 (nM)/Ki α2β2γ1 (nM); for LogSel: Log[Ki α1β3γ2 (nM)/Ki α2β2γ1 (nM)]
Procedure, shortened: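 Competition against [3H]Flumazenil binding in HEK293F cells transiently expressing human α1β3γ2 receptors, pellets resuspended in mannitol buffer pH 7,2-7,4. Incubated to equilibrium 1 hour at 4° C, filtered and washed with ice-cold 50 mM Tris pH 7.5, bound radioactivity by liquid scintillation counting. Ki values are means of two determinations.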

[3] = Ki h-GABAA α2β2γ1, membranes of HEK293F cells, [3H]RO7239181 20-30 nM, Table 1
[4] = Ki h-GABAA α2β2γ1, membranes of HEK293F cells, [3H]RO7239181 20-30 nM, Table 2
[5] = HEK293F cells, [3H]Flumazenil 1 nM, Table 1, read-out: Ki h-GABAA α1β3γ2

SMILES	Efficacy (GABA) % (h-GABA-A α2β2γ1)	Fold increase h-GABA-A α2β2γ1 oocyte @ 30-fold Ki (h-GABA-A α2β2γ1)	Ki [1, 3]	Ki [1, 4]	Ki [2, 5]	γ2/γ1 Selectivity Ratio ([2]; Table 1)	LogSel ([2]; Table 1)	Ki [2]	Ki ([1]; Ki h-GABAA α2β2γ1, Table 3, reference compounds and examples)	γ2/γ1 Selectivity Ratio ([2]; Table 3)	LogSel ([2]; Table 3)
C[C@@H]1N=C(c2c(F)cccc2F)c2c(sc3c2COCCO3)-n2nc(C(=O)NC[C@](C)(O)C(F)(F)F)nc21 [Example 47, (7S)-9-(2,6-difluorophenyl)-7-methyl-N-[(2S)-3,3,3-trifluoro-2-hydroxy-2-methyl-propyl]-13,16-dioxa-18-thia-2,3,5,8-tetrazatetracyclo[8.8.0.02,6.011,17]octadeca-1(10),3,5,8,11(17)-pentaene-4-carboxamide]	89%	1.89	20.3 nM	20.3 nM	3540 nM	174.6	2.24				
C[C@@H]1N=C(c2c(F)cccc2F)c2c(sc3c2COCCO3)-n2c(C(F)F)nnc21 [Example 48, (7S)-3-(difluoromethyl)-9-(2,6-difluorophenyl)-7-methyl-13,16-dioxa-18-thia-2,4,5,8-tetrazatetracyclo[8.8.0.02,6.011,17]octadeca-1(10),3,5,8,11(17)-pentaene]	144%	2.44	47.9 nM	47.9 nM		626.6	2.80	> 30000 nM			
CCc1nc2n(n1)-c1sc3c(c1C(c1c(F)cccc1F)=N[C@H]2C)COC[C@H](C)O3 [Example 49, (7S,15S)-9-(2,6-difluorophenyl)-4-ethyl-7,15-dimethyl-13,16-dioxa-18-thia-2,3,5,8-tetrazatetracyclo[8.8.0.02,6.011,17]octadeca-1(10),3,5,8,11(17)-pentaene]	131%	2.31	52.5 nM	52.5 nM		166.8	2.22	8750 nM			
Cc1nnc2n1-c1sc3c(c1C(c1c(F)cccc1F)=N[C@H]2C)COCCC3 [Example 52, (7S)-9-(2,6-difluorophenyl)-3,7-dimethyl-13-oxa-18-thia-2,4,5,8-tetrazatetracyclo[8.8.0.02,6.011,17]octadeca-1(10),3,5,8,11(17)-pentaene]	170%	2.70	27.7 nM	27.7 nM		100.3	2.00	2780 nM	27.7 nM	100.3	2.0
C[C@@H]1N=C(c2c(F)cccc2F)c2c(sc3c2COC[C@H](C)O3)-n2nc(C(=O)NCCO)nc21 [Example 53, (7S,15S)-9-(2,6-difluorophenyl)-N-(2-hydroxyethyl)-7,15-dimethyl-13,16-dioxa-18-thia-2,3,5,8-tetrazatetracyclo[8.8.0.02,6.011,17]octadeca-1(10),3,5,8,11(17)-pentaene-4-carboxamide]	237%	3.37	95.3 nM	95.3 nM	11400 nM	119.7	2.08				
Cc1nnc2n1-c1sc3c(c1C(c1c(F)cccc1F)=N[C@H]2C)CC[C@@H](F)CO3 [Example 56, (7S,14R)-9-(2,6-difluorophenyl)-14-fluoro-3,7-dimethyl-16-oxa-18-thia-2,4,5,8-tetrazatetracyclo[8.8.0.02,6.011,17]octadeca-1(10),3,5,8,11(17)-pentaene]	147%	2.47	39.4 nM	39.4 nM		290.8	2.46	11500 nM			
Cc1nc2n(n1)-c1sc3c(c1C(c1c(F)cccc1F)=N[C@H]2C)COCCC3 [Example 57, (7S)-9-(2,6-difluorophenyl)-4,7-dimethyl-13-oxa-18-thia-2,3,5,8-tetrazatetracyclo[8.8.0.02,6.011,17]octadeca-1(10),3,5,8,11(17)-pentaene]	73%	1.73	7.3 nM	7.3 nM		615.2	2.79	4520 nM			
Cc1nnc2n1-c1sc3c(c1C(c1c(F)cccc1Cl)=N[C@H]2C)COCCC3 [Example 61, (7S)-9-(2-chloro-6-fluoro-phenyl)-3,7-dimethyl-13-oxa-18-thia-2,4,5,8-tetrazatetracyclo[8.8.0.02,6.011,17]octadeca-1(10),3,5,8,11(17)-pentaene]	165%	2.65	20.6 nM	20.6 nM		122.4	2.09	2520 nM			
C[C@@H]1N=C(c2c(F)cccc2F)c2c(sc3c2COCCC3)-n2nc(C(=O)NCC3(O)CC3)nc21 [Example 62, (7S)-9-(2,6-difluorophenyl)-N-[(1-hydroxycyclopropyl)methyl]-7-methyl-13-oxa-18-thia-2,3,5,8-tetrazatetracyclo[8.8.0.02,6.011,17]octadeca-1(10),3,5,8,11(17)-pentaene-4-carboxamide]	179%	2.79	24.6 nM	24.5 nM	4920 nM	200.3	2.30				
C[C@@H]1N=C(c2c(F)cccc2F)c2c(sc3c2COCCC3)-n2nc(C(=O)N[C@H]3C[C@H](O)C3)nc21 [Example 63, (7S)-9-(2,6-difluorophenyl)-N-(trans-3-hydroxycyclobutyl)-7-methyl-13-oxa-18-thia-2,3,5,8-tetrazatetracyclo[8.8.0.02,6.011,17]octadeca-1(10),3,5,8,11(17)-pentaene-4-carboxamide]	169%	2.69	45.9 nM	45.9 nM	4430 nM	96.5	1.98				
C[C@@H]1N=C(c2c(F)cccc2F)c2c(sc3c2COCCC3)-n2nc(C(=O)N[C@H]3C[C@@H](O)C3)nc21 [Example 64, (7S)-9-(2,6-difluorophenyl)-N-(cis-3-hydroxycyclobutyl)-7-methyl-13-oxa-18-thia-2,3,5,8-tetrazatetracyclo[8.8.0.02,6.011,17]octadeca-1(10),3,5,8,11(17)-pentaene-4-carboxamide]	164%	2.64	56.2 nM	56.2 nM	7870 nM	139.9	2.15				
C[C@@H]1N=C(c2c(F)cccc2F)c2c(sc3c2COCCO3)-n2cc(C(=O)NCC3(O)CC3)nc21 [Example 65, (7S)-9-(2,6-difluorophenyl)-N-[(1-hydroxycyclopropyl)methyl]-7-methyl-13,16-dioxa-18-thia-2,5,8-triazatetracyclo[8.8.0.02,6.011,17]octadeca-1(10),3,5,8,11(17)-pentaene-4-carboxamide]	169%	2.69	23.1 nM	23.1 nM	1240 nM	53.8	1.73				
C[C@@H]1N=C(c2c(F)cccc2F)c2c(sc3c2COCCC3)-n2cc(C(=O)NCCO)nc21 [Example 66, (7S)-9-(2,6-difluorophenyl)-N-(2-hydroxyethyl)-7-methyl-13-oxa-18-thia-2,5,8-triazatetracyclo[8.8.0.02,6.011,17]octadeca-1(10),3,5,8,11(17)-pentaene-4-carboxamide]	153%	2.53	14.7 nM	14.7 nM	2510 nM	170.6	2.23				
C[C@@H]1N=C(c2c(F)cccc2F)c2c(sc3c2COCCC3)-n2cc(C(=O)NCC(C)(C)O)nc21 [Example 67, (7S)-9-(2,6-difluorophenyl)-N-(2-hydroxy-2-methyl-propyl)-7-methyl-13-oxa-18-thia-2,5,8-triazatetracyclo[8.8.0.02,6.011,17]octadeca-1(10),3,5,8,11(17)-pentaene-4-carboxamide]	164%	2.64	21.3 nM	21.3 nM	1800 nM	84.5	1.93				
C[C@@H]1N=C(c2c(F)cccc2F)c2c(sc3c2COCCC3)-n2cc(C(=O)NCC3(O)CC3)nc21 [Example 68, (7S)-9-(2,6-difluorophenyl)-N-[(1-hydroxycyclopropyl)methyl]-7-methyl-13-oxa-18-thia-2,5,8-triazatetracyclo[8.8.0.02,6.011,17]octadeca-1(10),3,5,8,11(17)-pentaene-4-carboxamide]	159%	2.59	10.6 nM	10.6 nM	1980 nM	187.5	2.27				
